{
  "source": "ChEMBL document CHEMBL5154668",
  "about": "“Modulating physicochemical properties of tetrahydropyridine-2-amine BACE1 inhibitors with electron-withdrawing groups: A systematic study” (Eur J Med Chem, 2022)",
  "key": {"Beta-secretase 1": {"target": "Beta-secretase 1 (Homo sapiens, UniProt P56817)", "sequence (P56817 whole entry)": "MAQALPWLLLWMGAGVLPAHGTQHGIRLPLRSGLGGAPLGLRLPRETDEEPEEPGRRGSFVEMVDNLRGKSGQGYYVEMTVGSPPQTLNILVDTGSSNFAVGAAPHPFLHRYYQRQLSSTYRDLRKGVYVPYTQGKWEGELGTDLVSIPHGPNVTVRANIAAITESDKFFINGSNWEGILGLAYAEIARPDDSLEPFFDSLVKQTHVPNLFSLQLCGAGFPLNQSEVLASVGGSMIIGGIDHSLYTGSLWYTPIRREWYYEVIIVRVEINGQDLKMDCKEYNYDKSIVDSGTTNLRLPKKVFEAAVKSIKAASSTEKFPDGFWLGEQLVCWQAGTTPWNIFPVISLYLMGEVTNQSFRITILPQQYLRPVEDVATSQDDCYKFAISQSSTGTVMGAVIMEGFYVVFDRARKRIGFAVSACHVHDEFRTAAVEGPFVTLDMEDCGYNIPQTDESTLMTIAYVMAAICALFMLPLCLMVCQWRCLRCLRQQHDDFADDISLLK", "assay": "Inhibition of BACE1 (unknown origin)"}, "[1]": {"assay": "Inhibition of sodium channel (unknown origin)", "parameters": "species or system Homo sapiens"}, "[2]": {"assay": "Inhibition of calcium channel (unknown origin)", "parameters": "species or system Homo sapiens"}, "[3]": {"target": "Voltage-gated inwardly rectifying potassium channel KCNH2 (Homo sapiens, UniProt Q12809)", "sequence (Q12809 whole entry)": "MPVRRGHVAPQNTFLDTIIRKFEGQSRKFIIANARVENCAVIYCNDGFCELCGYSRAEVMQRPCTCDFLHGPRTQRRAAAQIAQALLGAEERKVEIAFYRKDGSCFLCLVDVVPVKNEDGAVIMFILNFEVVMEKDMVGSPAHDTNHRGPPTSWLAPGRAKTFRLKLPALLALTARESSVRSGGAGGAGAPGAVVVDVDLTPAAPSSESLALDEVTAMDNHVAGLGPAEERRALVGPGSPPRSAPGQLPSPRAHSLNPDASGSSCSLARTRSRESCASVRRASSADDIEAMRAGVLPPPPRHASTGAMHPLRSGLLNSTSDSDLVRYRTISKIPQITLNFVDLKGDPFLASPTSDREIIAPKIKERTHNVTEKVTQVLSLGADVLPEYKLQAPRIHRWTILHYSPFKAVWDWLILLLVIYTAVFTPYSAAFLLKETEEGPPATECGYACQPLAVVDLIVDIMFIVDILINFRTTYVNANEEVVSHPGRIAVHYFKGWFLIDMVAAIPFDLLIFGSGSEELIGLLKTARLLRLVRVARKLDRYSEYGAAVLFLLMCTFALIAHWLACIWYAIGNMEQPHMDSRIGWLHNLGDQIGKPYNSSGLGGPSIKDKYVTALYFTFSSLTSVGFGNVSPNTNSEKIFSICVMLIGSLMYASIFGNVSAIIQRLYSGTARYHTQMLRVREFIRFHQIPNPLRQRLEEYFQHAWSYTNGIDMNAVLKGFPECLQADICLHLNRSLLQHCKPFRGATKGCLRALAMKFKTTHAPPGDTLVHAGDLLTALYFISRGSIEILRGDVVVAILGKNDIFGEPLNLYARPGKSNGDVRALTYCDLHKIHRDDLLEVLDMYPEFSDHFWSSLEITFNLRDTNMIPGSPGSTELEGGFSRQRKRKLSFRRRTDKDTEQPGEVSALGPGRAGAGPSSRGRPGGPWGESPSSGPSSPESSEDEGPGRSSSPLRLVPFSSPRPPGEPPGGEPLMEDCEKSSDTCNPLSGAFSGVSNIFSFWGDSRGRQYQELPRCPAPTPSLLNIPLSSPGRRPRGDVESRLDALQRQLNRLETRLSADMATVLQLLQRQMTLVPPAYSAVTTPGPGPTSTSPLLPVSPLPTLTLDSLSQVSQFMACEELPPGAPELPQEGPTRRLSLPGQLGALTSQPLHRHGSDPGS", "assay": "Inhibition of hERG", "type": "toxicity"}, "[4]": {"assay": "Dissociation constant, pKa of the compound by potentiometric titration method", "type": "physicochemical"}, "[5]": {"assay": "Apparent permeability in MDCK-MDR1 cells", "type": "ADME, cell-based, Canis lupus familiaris", "settings": "dog"}, "[6]": {"assay": "Efflux ratio of apparent permeability in MDCK-MDR1 cells", "type": "ADME, cell-based, Canis lupus familiaris", "settings": "dog"}},
  "data": [
    {"smiles": "C[C@@]1(c2cc(-c3cnc(OCF)cn3)ccc2F)CCC(F)(F)C(N)=N1", "values": [
      {"measurement": "IC50", "setting": "Beta-secretase 1", "value": 12, "unit": "nM"},
      {"measurement": "IC50", "setting": "[1]", "value": "> 10000", "unit": "nM"},
      {"measurement": "IC50", "setting": "[2]", "value": "> 10000", "unit": "nM"}
    ]},
    {"smiles": "C[C@@]1(c2cc(-c3cc4c(cn3)OC(F)(F)O4)ccc2F)CC[C@@](C)(S(=O)(=O)C(F)(F)F)C(N)=N1", "values": [
      {"measurement": "IC50", "setting": "Beta-secretase 1", "value": 5.9, "unit": "nM"},
      {"measurement": "IC50", "setting": "[3]", "value": "> 10000", "unit": "nM"},
      {"measurement": "IC50", "setting": "[1]", "value": 170, "unit": "nM"},
      {"measurement": "IC50", "setting": "[2]", "value": "< 100", "unit": "nM"},
      {"measurement": "pKa", "setting": "[4]", "value": 7.4}
    ]},
    {"smiles": "C[C@@]1(S(C)(=O)=O)CC[C@@](CF)(c2cc(NC(=O)c3cnc(OCF)cn3)ccc2F)N=C1N", "values": [
      {"measurement": "IC50", "setting": "[1]", "value": 8510, "unit": "nM"},
      {"measurement": "IC50", "setting": "[2]", "value": "> 10000", "unit": "nM"}
    ]},
    {"smiles": "COc1cnc(-c2ccc(F)c([C@]3(CF)CC[C@@](C)(C#N)C(N)=N3)c2)cn1", "values": [
      {"measurement": "IC50", "setting": "Beta-secretase 1", "value": 54, "unit": "nM"},
      {"measurement": "IC50", "setting": "[1]", "value": "> 10000", "unit": "nM"},
      {"measurement": "IC50", "setting": "[2]", "value": "> 10000", "unit": "nM"}
    ]},
    {"smiles": "CN(C)C(=O)[C@]1(C)CC[C@@](CF)(c2cc(-c3ccc(F)cn3)ccc2F)N=C1N", "values": [
      {"measurement": "IC50", "setting": "Beta-secretase 1", "value": 66, "unit": "nM"},
      {"measurement": "IC50", "setting": "[3]", "value": 8320, "unit": "nM"},
      {"measurement": "IC50", "setting": "[1]", "value": "> 10000", "unit": "nM"},
      {"measurement": "IC50", "setting": "[2]", "value": "> 10000", "unit": "nM"},
      {"measurement": "Papp", "setting": "[5]", "value": 2.7, "unit": "×10⁻⁶ cm/s"},
      {"measurement": "efflux ratio", "setting": "[6]", "value": 52},
      {"measurement": "pKa", "setting": "[4]", "value": 9.2}
    ]},
    {"smiles": "COc1cnc(-c2ccc(F)c([C@]3(C)CC[C@@](C)(C#N)C(N)=N3)c2)cn1", "values": [
      {"measurement": "IC50", "setting": "Beta-secretase 1", "value": 9.8, "unit": "nM"},
      {"measurement": "IC50", "setting": "[1]", "value": 4900, "unit": "nM"},
      {"measurement": "IC50", "setting": "[2]", "value": 6610, "unit": "nM"}
    ]},
    {"smiles": "C[C@@]1(c2cc(NC(=O)c3ccc(F)cn3)ccc2F)CC[C@@](CF)(S(C)(=O)=O)C(N)=N1", "values": [
      {"measurement": "IC50", "setting": "Beta-secretase 1", "value": 15, "unit": "nM"},
      {"measurement": "IC50", "setting": "[1]", "value": 6460, "unit": "nM"},
      {"measurement": "IC50", "setting": "[2]", "value": "> 10000", "unit": "nM"}
    ]},
    {"smiles": "COc1cnc(C(=O)Nc2ccc(F)c([C@@]3(C)N=C(N)[C@](C)(S(C)(=O)=O)C[C@@H]3F)c2)cn1", "values": [
      {"measurement": "IC50", "setting": "[1]", "value": "> 10000", "unit": "nM"},
      {"measurement": "IC50", "setting": "[2]", "value": "> 10000", "unit": "nM"}
    ]},
    {"smiles": "COc1cnc(-c2ccc(F)c([C@]3(C)CC[C@@](C)(S(C)(=O)=O)C(N)=N3)c2)cn1", "values": [
      {"measurement": "IC50", "setting": "Beta-secretase 1", "value": 4, "unit": "nM"},
      {"measurement": "IC50", "setting": "[1]", "value": 8710, "unit": "nM"},
      {"measurement": "IC50", "setting": "[2]", "value": "> 10000", "unit": "nM"}
    ]},
    {"smiles": "COc1cnc(-c2ccc(F)c([C@]3(CF)CC[C@](C)(C#N)C(N)=N3)c2)cn1", "values": [
      {"measurement": "IC50", "setting": "Beta-secretase 1", "value": 851, "unit": "nM"},
      {"measurement": "IC50", "setting": "[1]", "value": "> 10000", "unit": "nM"},
      {"measurement": "IC50", "setting": "[2]", "value": "> 10000", "unit": "nM"}
    ]},
    {"smiles": "CN(C)S(=O)(=O)[C@]1(C)CC[C@@](CF)(c2cc(-c3ccc(F)cn3)ccc2F)N=C1N", "values": [
      {"measurement": "IC50", "setting": "Beta-secretase 1", "value": 4, "unit": "nM"},
      {"measurement": "IC50", "setting": "[1]", "value": 2140, "unit": "nM"},
      {"measurement": "IC50", "setting": "[2]", "value": "> 10000", "unit": "nM"}
    ]},
    {"smiles": "C[C@@]1(c2cc(-c3ccc(Cl)cn3)ccc2F)CCC2(CC2)C(N)=N1", "values": [
      {"measurement": "IC50", "setting": "Beta-secretase 1", "value": 31, "unit": "nM"},
      {"measurement": "pKa", "setting": "[4]", "value": "> 11"}
    ]},
    {"smiles": "C[C@@]1(c2nc(-c3ccc(F)cn3)cs2)CC[C@@](C)(S(C)(=O)=O)C(N)=N1", "values": [
      {"measurement": "IC50", "setting": "Beta-secretase 1", "value": 25, "unit": "nM"},
      {"measurement": "Papp", "setting": "[5]", "value": 37, "unit": "×10⁻⁶ cm/s"},
      {"measurement": "efflux ratio", "setting": "[6]", "value": 22},
      {"measurement": "pKa", "setting": "[4]", "value": 7}
    ]},
    {"smiles": "C[C@@]1(c2cc(-c3ccc(Cl)cn3)ccc2F)C[C@@H]2C[C@@H]2C(N)=N1", "values": [
      {"measurement": "IC50", "setting": "Beta-secretase 1", "value": 96, "unit": "nM"},
      {"measurement": "pKa", "setting": "[4]", "value": "> 11"}
    ]},
    {"smiles": "NC1=N[C@](CF)(c2cc(-c3cnc(OCF)cn3)ccc2F)CCC1(F)F", "values": [
      {"measurement": "IC50", "setting": "Beta-secretase 1", "value": 8.9, "unit": "nM"},
      {"measurement": "IC50", "setting": "[1]", "value": "> 10000", "unit": "nM"},
      {"measurement": "IC50", "setting": "[2]", "value": "> 10000", "unit": "nM"}
    ]},
    {"smiles": "CC1CC[C@@](CF)(c2cc(-c3cc4c(cn3)OC(F)(F)O4)ccc2F)N=C1N", "note": "(stereo not given in full)", "values": [
      {"measurement": "IC50", "setting": "Beta-secretase 1", "value": 59, "unit": "nM"},
      {"measurement": "IC50", "setting": "[1]", "value": 650, "unit": "nM"},
      {"measurement": "IC50", "setting": "[2]", "value": 1950, "unit": "nM"}
    ]},
    {"smiles": "COc1cnc(-c2ccc(F)c([C@]3(C(F)F)CC[C@@](C)(C#N)C(N)=N3)c2)cn1", "values": [
      {"measurement": "IC50", "setting": "Beta-secretase 1", "value": 12, "unit": "nM"},
      {"measurement": "IC50", "setting": "[3]", "value": "> 10000", "unit": "nM"},
      {"measurement": "IC50", "setting": "[1]", "value": "> 10000", "unit": "nM"},
      {"measurement": "IC50", "setting": "[2]", "value": "> 10000", "unit": "nM"},
      {"measurement": "Papp", "setting": "[5]", "value": 54, "unit": "×10⁻⁶ cm/s"},
      {"measurement": "efflux ratio", "setting": "[6]", "value": 15},
      {"measurement": "pKa", "setting": "[4]", "value": 6}
    ]},
    {"smiles": "C[C@@]1(S(C)(=O)=O)CC[C@@](CF)(c2nc(-c3cnc(OCF)cn3)ccc2F)N=C1N", "values": [
      {"measurement": "IC50", "setting": "Beta-secretase 1", "value": 38, "unit": "nM"},
      {"measurement": "pKa", "setting": "[4]", "value": 7.6}
    ]}
  ]
}
